Some results are limits rather than exact numbers.

The target of one test is T1, KIT(JMminus) (Homo sapiens, UniProt P10721).
T1 construct: KIT(JMminus); made in house
Kind of test: Binding constant (Kd) measurement, phage-displayed kinase competition binding assay: KIT(JMminus). From the text: (§1) The term “ND” represents non-determined values.

The next test concerns the target T2, KIT(JMminus,D816V) (Homo sapiens, UniProt P10721, D816V).
T2 construct: KIT(JMminus,D816V); made in house
Kind of test: Binding constant (Kd) measurement, phage-displayed kinase competition binding assay: KIT(JMminus,D816V).
Source text: as §1

The target in another test is T3, KIT(DKIN) (Homo sapiens, UniProt P10721).
T3 construct: KIT(DKIN); made in house
Kind of test: Binding constant (Kd) measurement, phage-displayed kinase competition binding assay: KIT(DKIN).
Source text: as §1

Another test has as its target T4, MKNK2(DKIN) (Homo sapiens, UniProt Q9HBH9).
T4 construct: MKNK2(DKIN); made in house
Kind of test: Binding constant (Kd) measurement, phage-displayed kinase competition binding assay: MKNK2(DKIN).
Source text: as §1

The target in another test is T5, KIT(JMplus,V559D) (Homo sapiens, UniProt P10721, V559D).
T5 construct: KIT(JMplus); made in house
Nature of the test: Binding constant (Kd) measurement, phage-displayed kinase competition binding assay: KIT(JMplus,V559D).
Source text: as §1

Another test has as its system CS0001. Kind of test: Cell Assay: CS0001:IC50. The format is cell-based.
Another test deals with KIT(JMplus) (Homo sapiens, UniProt P10721). Nature of the test: Binding constant (Kd) measurement, phage-displayed kinase competition binding assay: KIT(JMplus).
KIT(JMplus), sequence (P10721 546-976 limits assumed): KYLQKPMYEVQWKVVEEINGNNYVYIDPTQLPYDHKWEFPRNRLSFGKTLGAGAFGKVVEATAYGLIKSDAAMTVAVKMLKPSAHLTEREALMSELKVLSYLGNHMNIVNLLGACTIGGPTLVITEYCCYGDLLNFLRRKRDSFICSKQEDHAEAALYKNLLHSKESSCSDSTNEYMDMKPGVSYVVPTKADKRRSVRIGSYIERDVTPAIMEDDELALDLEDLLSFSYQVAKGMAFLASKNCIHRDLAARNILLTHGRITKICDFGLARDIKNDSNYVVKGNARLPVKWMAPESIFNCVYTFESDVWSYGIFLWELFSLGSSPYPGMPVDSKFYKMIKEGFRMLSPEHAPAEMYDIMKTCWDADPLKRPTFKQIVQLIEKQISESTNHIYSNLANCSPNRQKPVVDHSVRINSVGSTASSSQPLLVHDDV

T4 sequence (Q9HBH9 84-388 limits assumed): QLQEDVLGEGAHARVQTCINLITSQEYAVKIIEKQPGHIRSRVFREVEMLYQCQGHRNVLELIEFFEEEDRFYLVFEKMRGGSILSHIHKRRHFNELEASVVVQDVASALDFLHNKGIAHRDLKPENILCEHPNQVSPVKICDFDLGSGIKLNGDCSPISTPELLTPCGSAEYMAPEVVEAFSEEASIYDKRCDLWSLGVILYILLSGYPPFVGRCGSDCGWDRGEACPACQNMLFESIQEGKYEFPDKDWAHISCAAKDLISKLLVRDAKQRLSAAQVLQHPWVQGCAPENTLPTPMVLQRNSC
T1 sequence (P10721 589-937 limits assumed): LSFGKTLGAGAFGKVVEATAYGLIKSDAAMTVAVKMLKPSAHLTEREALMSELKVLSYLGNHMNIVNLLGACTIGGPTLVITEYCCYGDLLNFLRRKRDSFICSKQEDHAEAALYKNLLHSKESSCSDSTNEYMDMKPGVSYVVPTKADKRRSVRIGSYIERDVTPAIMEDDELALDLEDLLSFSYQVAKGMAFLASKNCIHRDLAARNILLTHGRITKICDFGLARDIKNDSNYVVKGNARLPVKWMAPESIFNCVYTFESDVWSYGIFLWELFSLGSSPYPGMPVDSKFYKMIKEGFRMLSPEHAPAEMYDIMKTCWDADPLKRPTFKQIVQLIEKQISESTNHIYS
T3 sequence (P10721 589-937 limits assumed): as above
T2 sequence (P10721 589-937 D816V limits assumed): as the sequence (P10721 589-937 limits assumed) above, with D228V counted along it
T5 sequence (P10721 546-976 V559D limits assumed): as the sequence (P10721 546-976 limits assumed) above, with V14D counted along it
Source text for KIT(JMplus): The components of the assays include human kinases expressed as fusions to T7 bacteriophage particles and immobilized ligands that bind to the ATP site of the kinases. […] If the test compound binds the kinase it competes with the immobilized ligand and prevents binding to the solid support. […] The results are read out by quantitating the amount of fusion protein bound to the solid support, which is accomplished by either traditional phage plaque assays or by quantitative PCR (qPCR) using the phage genome as a template.

Take `CC(C)(C)c1cc(NC(=O)Nc2ccc(OCc3ccccc3F)cc2)no1` [Compound G12, 1-(4-(2-fluorobenzyloxy)phenyl)-3-(5-tert-butylisoxazol-3-yl)urea]: the Kd (in general, the concentration at which binding is half-saturated) is < 100 nM on KIT(JMminus), 1000 to 10000 nM at KIT(JMminus,D816V) and 100 to 1000 nM on KIT(DKIN).

Consider `CC(C)(C)c1cc(NC(=O)Nc2ccc(NC(=O)c3cc(Cl)nnc3Cl)cc2)no1` [Compound N174], for which the Kd on KIT(JMminus) and on KIT(DKIN) was 1000 to 10000 nM throughout.

`CC(C)(C)c1cc(NC(=O)Nc2ccc(NC(=O)c3ccc4sccc4c3)cc2)no1` [Compound N122]: the Kd was < 100 nM at KIT(JMminus) and 100 to 1000 nM on KIT(DKIN).

On to `CC(C)(C)c1cc(NC(=O)Nc2ccc(OCC3CC3)cc2)no1` [Compound G37], for which the Kd is < 100 nM on KIT(JMminus), 1000 to 10000 nM at KIT(JMminus,D816V), 100 to 1000 nM at MKNK2(DKIN) and < 100 nM at KIT(DKIN).

`Cc1nc(-c2ccc(C(=O)Nc3ccc(NC(=O)Nc4cc(C(C)(C)C)on4)cc3)s2)cs1` [Compound N173]: the Kd at KIT(JMminus) is < 100 nM; at KIT(DKIN) it was 100 to 1000 nM.

As to `Cc1ccc2sc(C(=O)Nc3ccc(NC(=O)Nc4cc(C(C)(C)C)on4)cc3)cc2c1` [Compound N133], the Kd at KIT(JMminus) was < 100 nM; at KIT(DKIN), 100 to 1000 nM.

`CC(C)(C)c1cc(NC(=O)Nc2ccc(NC(=O)/C=C/c3ccccc3Cl)cc2)no1` [Compound N40]: the Kd on KIT(JMminus) was < 100 nM; at KIT(DKIN), 100 to 1000 nM.

In the case of `COc1cc2ncnc(Nc3ccc(NC(=O)Nc4cc(C(C)(C)C)on4)cc3)c2cc1OC` [Compound O5], the Kd on KIT(JMminus), at KIT(JMminus,D816V) and on KIT(JMplus,V559D) was < 100 nM throughout.

As for `CC(C)(C)c1cnc(CSc2cnc(NC(=O)Nc3ccon3)s2)o1`, the IC50 (usually the concentration that gives 50% inhibition) in the test on CS0001 was < 100 nM.

On to `CC(C)(C)c1cc(NC(=O)Nc2ccc(NC(=O)c3ccc4ccncc4n3)cc2)no1` [Compound N110], for which the Kd at KIT(JMminus) and at KIT(DKIN) was < 100 nM each time.

As for `CC(C)(C)c1cc(NC(=O)Nc2ccc(C(=O)Nc3nccnc3N)cc2)no1` [Compound N157], the figures for the Kd at KIT(JMminus), at KIT(JMminus,D816V) and at MKNK2(DKIN) were < 100 nM, 1000 to 10000 nM and 100 to 1000 nM, respectively.

For `CC(C)(C)c1cc(NC(=O)Nc2ccc(NC(=O)c3cn4nc(Cl)ccc4n3)cc2)no1` [Compound N9], the dissociation constant Kd at KIT(JMminus) and at KIT(DKIN) was < 100 nM in each case.

For `COc1cc2nc(Cl)nc(Nc3ccc(NC(=O)Nc4cc(C(C)(C)C)on4)cc3)c2cc1OC` [Compound O1, 1-(4-(2-chloro-6,7-dimethoxyquinazolin-4-ylamino)phenyl)-3-(5-tert-butylisoxazol-3-yl)urea], the Kd at KIT(JMminus) is < 100 nM; on KIT(JMminus,D816V), 1000 to 10000 nM; at KIT(DKIN), 100 to 1000 nM; on KIT(JMplus,V559D), < 100 nM.

For the molecule `CC(C)(C)c1cc(NC(=O)Nc2ccc(NC(=O)c3ccccn3)cc2)no1` [Compound N188], the Kd is < 100 nM at KIT(JMminus), 100 to 1000 nM on KIT(JMminus,D816V), < 100 nM at KIT(DKIN) and < 100 nM at KIT(JMplus).

With `CC(C)(C)c1cc(NC(=O)Nc2ccc(OCCCc3ccncc3)cc2)no1` [Compound G1, 1-(4-(3-(pyridin-4-yl)propoxy)phenyl)-3-(5-tert-butylisoxazol-3-yl)urea], the Kd at KIT(JMminus) and on KIT(DKIN) was < 100 nM throughout.

`Cc1ccc(C(=O)Nc2ccc(NC(=O)Nc3cc(C(C)(C)C)on3)cc2)cc1` [Compound N92]: the figures for the Kd on KIT(JMminus) and at KIT(DKIN) were < 100 nM and 100 to 1000 nM, respectively.

For `CC(C)(C)c1cc(NC(=O)Nc2ccc(NC(=O)c3ccc4ccccc4n3)cc2)no1` [Compound N143], the Kd on KIT(JMminus) and on KIT(DKIN) was < 100 nM each time.

Turning to `CC(C)(C)c1cc(NC(=O)Nc2ccc(N3C(=O)c4ccccc4C3=O)cc2)no1` [Compound A57], the dissociation constant Kd at KIT(JMminus) is < 100 nM; on KIT(JMminus,D816V), 1000 to 10000 nM.

`Cc1cccc(C(=O)Nc2ccc(NC(=O)Nc3cc(C(C)(C)C)on3)cc2)n1` [Compound N121]: the Kd on KIT(JMminus) and at KIT(DKIN) was < 100 nM in each case.

Regarding `CC(C)(C)c1cc(NC(=O)Nc2ccc(NC(=O)c3cc4ccccc4cn3)cc2)no1` [Compound N106], the Kd at KIT(JMminus) and at KIT(DKIN) was < 100 nM in each case.

As to `Cc1cccnc1C(=O)Nc1ccc(NC(=O)Nc2cc(C(C)(C)C)on2)cc1` [Compound N41], the Kd at KIT(JMminus) and on KIT(DKIN) was < 100 nM throughout.

As for `CC(C)(C)c1cc(NC(=O)Nc2ccc(NC(=O)c3ccc4ccccc4c3)cc2)no1` [Compound N28], the Kd on KIT(JMminus) and on KIT(DKIN) was < 100 nM each time.

Turning to `CC(C)(C)c1cc(NC(=O)Nc2ccc(NC(=O)c3cccc(Cl)n3)cc2)no1` [Compound N4], the Kd on KIT(JMminus) and at KIT(DKIN) was < 100 nM throughout.

On to `Cc1[nH]c(C(=O)Nc2ccc(NC(=O)Nc3cc(C(C)(C)C)on3)cc2)c(C)c1CCC(=O)O` [Compound N39], for which the Kd at KIT(JMminus,D816V) was 100 to 1000 nM; on KIT(DKIN), < 100 nM.

For the molecule `CC(C)(C)c1cc(NC(=O)Nc2ccc(NC(=O)c3ncccc3O)cc2)no1` [Compound N134], the Kd on KIT(JMminus) was < 100 nM; at KIT(JMminus,D816V) it was 100 to 1000 nM; on KIT(DKIN), < 100 nM; on KIT(JMplus) it was < 100 nM.

As to `CC(C)(C)c1cc(NC(=O)Nc2ccc(NC(=O)c3cccc(F)n3)cc2)no1` [Compound N8], the Kd at KIT(JMminus) and at KIT(DKIN) was < 100 nM throughout.

Regarding `Cc1ccc2[nH]c(C(=O)Nc3ccc(NC(=O)Nc4cc(C(C)(C)C)on4)cc3)cc2c1` [Compound N127], the Kd is < 100 nM on KIT(JMminus) and 1000 to 10000 nM on KIT(JMminus,D816V).

Turning to `CC(=O)Oc1cccnc1C(=O)Nc1ccc(NC(=O)Nc2cc(C(C)(C)C)on2)cc1` [Compound N79], the Kd is < 100 nM at KIT(JMminus) and 100 to 1000 nM at KIT(JMminus,D816V).

`CC(C)(C)c1cc(NC(=O)Nc2ccc(Nc3ncnc4[nH]cnc34)cc2)no1` [Compound O3]: the Kd at KIT(JMminus,D816V) and at KIT(DKIN) was < 100 nM each time.

With `C=N/C(=N\C)Oc1cccc(C(=O)Nc2ccc(NC(=O)Nc3cc(C(C)(C)C)on3)cc2)c1` [Compound N74], the results for the Kd at KIT(JMminus), at KIT(JMminus,D816V) and on MKNK2(DKIN) were < 100 nM, 100 to 1000 nM and 100 to 1000 nM, respectively.

As for `Cc1nc(N)cc(Nc2ccc(NC(=O)Nc3cc(C(C)(C)C)on3)cc2)n1` [Compound O10], the figures for the Kd on KIT(JMminus) and at KIT(DKIN) were < 100 nM and 100 to 1000 nM, respectively.

Take `CC(C)(C)c1cc(NC(=O)Nc2ccc(Nc3nc(Cl)nc4[nH]cnc34)cc2)no1` [Compound O4]: the Kd on KIT(JMminus) and on KIT(DKIN) was < 100 nM throughout.

Regarding `Cc1cnc(C(=O)Nc2ccc(NC(=O)Nc3cc(C(C)(C)C)on3)cc2)cn1` [Compound O2], the Kd on KIT(JMminus) and on KIT(DKIN) was < 100 nM each time.

For the molecule `CC(C)c1cc(NC(=O)Nc2ccc(NC(=O)C3CCN(c4ncc(C(F)(F)F)cc4Cl)CC3)cc2)no1` [Compound N59], at KIT(JMminus), the Kd fell in the range of 100 to 1000 nM.

Take `CC(C)(C)c1cc(NC(=O)Nc2ccc(C(=O)/C=C/c3ccncc3)cc2)no1`: the IC50 in the test with CS0001 lay in the range of 100 to 1000 nM.

For `CC(C)(C)c1cc(NC(=O)Nc2ccc(NC(=O)c3cc(-c4ccc(O)cc4)cs3)cc2)no1` [Compound N77], the Kd on KIT(JMminus) is < 100 nM.

In the case of `CC(C)(C)c1cc(NC(=O)Nc2ccc(NC(=O)c3cscn3)cc2)no1` [Compound N57], on KIT(JMminus), the Kd is < 100 nM.

In the case of `CC(C)(C)c1cc(NC(=O)Nc2ccc(NC(=O)c3cc4ccccc4[nH]3)cc2)no1` [Compound N161], the figures for the Kd on KIT(JMminus) and at KIT(JMminus,D816V) were < 100 nM and 1000 to 10000 nM, respectively.

Take `COc1cc(OC)nc(Oc2ccccc2C(=O)Nc2ccc(NC(=O)Nc3cc(C(C)(C)C)on3)cc2)n1` [Compound N70]: the Kd at KIT(JMminus) is 100 to 1000 nM.

As for `CC(C)(C)c1cc(NC(=O)Nc2ccc(NC(=O)c3sccc3OCc3cccc(C(F)(F)F)c3)cc2)no1` [Compound N183], the Kd at KIT(JMminus) was < 100 nM.

`CC(C)(C)c1cc(NC(=O)Nc2ccc(NC(=O)c3cc(O)c4cccc(O)c4n3)cc2)no1` [Compound N176] registered a Kd at KIT(JMminus) of 1000 to 10000 nM.

(Values after patent US20050192314A1, “Urea derivatives as C-kit modulators” (Ambit Biosciences Corporation, priority 2003, published 2005).)
